# Measurements published in US4752612A, “Method and percutaneously administering physiologically active agents using an alcohol adjuvant and a solvent” (Nitto Electrical Industrial Co., Ltd., priority 1986, dated 1988).
# Counter-ions that a name gives are not always drawn. Like-named read-outs stand apart in the source and are kept apart here.
# Columns and labels:
# [1] = From the text: Rat full thickness skins were used in the diffusion cell method following the method of Michaels, AlChE Journal, 21 [5], 985-996, 1975. The rat skin was mounted in the diffusion cell in a vertical position between the upstream and the downstream compartments; the exposed area of the skin approximated 4.15 cm^2.
# The skin was excised from the shaved abdominal site of male albino rats weighing 250~300 g, and washed with normal saline solution after the subcutaneous fat was carefully removed with scissors.
# The active agent/PAEC solution of known concentration was added to the upper compartment of the cell, which was exposed to the epithelial side of the skin and a normal saline solution was placed in the lower compartment.
# The penetration rate was studied in a thermostated bath at 30° C.
# As an alternative, the finite dose technique of Franz, Curr. Probl. Dermatol., Vol. 7, p. 58~68 (Karger, Basel, 1978) can also be followed where the rat skin is mounted horizontally in a diffusion cell apparatus and the exposed area of the skin approximates 0.7 cm^2.
# The active agent/PAEC solution of known concentration was added to the upstream compartment to which the epithelial side of the skin was exposed, and a normal saline solution was added to the downstream compartment.
# Liquid compositions are prepared by firstly mixing Component A with Component B and then blending the active agent in the mixture. In the case that Component B is a solid at ambient temperature or will not homogenously mix with Component A, 20 wt.% of ethylene glycol monobutyl ether based on the weight of Components A and B can be used as an agent for assisting dissolution.
# The flux of the active agent is given in terms of μg/cm^2 /8 hours. Twenty-five volume percent Component A with respect to Component A plus Component B volume was used in the composition along with 2.5 weight percent of the active agent. For purposes of comparison, in certain instances the results for solvents alone and adjuvants alone are given.
# A propranolol system was formulated as follows: […] of propranolol was dissolved in 1 ml of 25 volume % dodecanol in N-methyl-2-pyrrolidone (based on total volume) and in 1 ml of ethyl alcohol as a comparison study.
# In the following Example 8, in vitro transdermal penetration was again analyzed using rat full thickness skins following the method of Michaels, AIChE Journal, 21, [53], pp. 985-996 (1975), according to the procedure earlier described. The sample volume was 1 ml unless otherwise indicated and flux of the active agent is given in μg/cm^2 /8 hours. All percents are volume percents based on the total volume of the system unless otherwise indicated.
# [2] = In vivo rhesus monkey test, plasma level after topical application; details: for concentration at 3 h / concentration at 5 h / concentration at 7 h: topical
# Experimental: If desired, an in vivo rhesus monkey test as described below may also be used to determine the effect of the PAEC combinations of the present invention.
# Male rhesus monkeys weighing 10-14 Kg each can be used as the subject. An appropriate area of the monkey's chest is shaved 24 hours before drug application.
# Drug formulations comprising the PAEC are applied to a certain area of the chest. The monkey is restrained in a chair to prevent it from touching its chest.
# Blood samples are taken at appropriate intervals after the application. The heparinized blood is centrifuged, and the plasma removed and stored at -20° C. until analyzed.
# In the following Examples 15 and 16, the in vivo monkey regimen earlier described was used to determine the effect of the PAEC combinations of the present invention, the regimen being modified as follows:
# Male rhesus monkeys weighting 8 to 13 Kg wee used as the subject and an appropriate area of the monkey's upper back was shaved 24 hours before drug application;
# the drug formulations were applied to 49 cm^2 of the upper back of the monkey; and
# plasma samples taken at appropriate intervals were analyzed by conventional HPLC.
# 1 ml of 25% 1-dodecanol and 75% MP containing 200 mg of propanolol was impregnated into a polyester non-woven cloth (49 cm^2; 230 mg) and applied to the upper back area of the monkey.
# The application site was occluded with Saran® film.
# The procedure of Example 15 was followed except for using Indomethacin, a NSAID, in place of propranolol.
# [3] = test system: rhesus monkey; test: Pharmacological (behavioral) effect in animal model after percutaneous administration; type: in vivo; details: blood level approximately 100 ng/ml plasma
smiles,measurement,setting,value
CCN(CC)CCNC(=O)c1cc(Cl)c(N)cc1OC [Metoclopramide (free base)],Flux,[1],2694 μg/cm^2 /8 hrs
CC(C)NCC(O)COc1cccc2ccccc12 (stereo not drawn) [Propranolol],Plasma Level,"[2]; 1 hr, 200 mg in 1 ml of 25% 1-dodecanol and 75% MP, 49 cm^2 upper back, occluded",0 ng/ml Plasma
same,concentration at 3 h,"[2]; rhesus monkey, plasma, 3 hr, 200 mg in 1 ml of 25% 1-dodecanol and 75% MP, 49 cm^2 upper back, occluded",0.055 µg/mL
same,concentration at 5 h,"[2]; rhesus monkey, plasma, 5 hr, 200 mg in 1 ml of 25% 1-dodecanol and 75% MP, 49 cm^2 upper back, occluded",0.085 µg/mL
same,concentration at 7 h,"[2]; rhesus monkey, plasma, 7 hr, 200 mg in 1 ml of 25% 1-dodecanol and 75% MP, 49 cm^2 upper back, occluded",0.08 µg/mL
"COC(=O)C1=C(C)NC(C)=C(C(=O)OC)C1c1ccccc1[N+](=O)[O-] [Nifedipine, 1,4-dihydro-2,6-dimethyl-4-(2-nitrophenyl)-3,5-pyridine dicarboxylic acid dimethyl ester]",flux (Nifedipine),[1]; (a) 25 mg + 1 ml of 25% 1-dodecanol and 75% MP,480 μg/cm^2 /8 hours
same,flux (Nifedipine),[1]; (b) 25 mg + 1 ml of 25% oleyl alcohol and 75% MP,394 μg/cm^2 /8 hours
same,flux (Nifedipine),[1]; (c) 25 mg + 1 ml of 25% 2-octyl-1-dodecanol and 75% MP,246 μg/cm^2 /8 hours
same,flux (Nifedipine),[1]; (d) control: 25 mg + 1 ml of MP,30 μg/cm^2 /8 hours
CCN(CC)CCNC(=O)c1cc(Cl)c(N)cc1OC [Metoclopramide HCl],Flux,[1],3280 μg/cm^2 /8 hrs
"CC(C)Cc1ccc(C(C)C(=O)O)cc1 (stereo not drawn) [Ibuprofen, p-isobutylhydratropic acid<2',4'-isobutylphenyl propionic acid]",flux (Ibuprofen),[1]; (a) 25 mg + 1 ml of 25% 1-dodecanol and 75% N-methyl pyrrolidone,307 μg/cm^2 /8 hours
same,flux (Ibuprofen),[1]; (b) 25 mg + 1 ml of 25% 1-dodecanol in 75% N-methyl piperidone,266 μg/cm^2 /8 hours
same,flux (Ibuprofen),[1]; (c) 25 mg + 1 ml of 25% 1-dodecanol in 75% N-methyl caprolactum,148 μg/cm^2 /8 hours
"COc1ccc2c(c1)c(CC(=O)O)c(C)n2C(=O)c1ccc(Cl)cc1 [Indomethacin, 1-(p-chlorobenzoyl)-5-methoxy-2-methylindole-3-acetic acid]",flux (Indomethacin),[1]; (a) 25 mg + 1 ml of 25% linalool and 75% MP,98 μg/cm^2 /8 hours
same,flux (Indomethacin),[1]; (b) 25 mg + 1 ml of 25% 1-dodecanol and 75% MP,236 μg/cm^2 /8 hours
same,flux (Indomethacin),[1]; (c) 25 mg + 1 ml of 25% oleyl alcohol and 75% MP,236 μg/cm^2 /8 hours
same,Plasma Level,"[2]; rhesus monkey, in vivo, 60 min",0 ng/ml Plasma
same,concentration at 3 h,"[2]; rhesus monkey, in vivo",0.27 µg/mL
same,concentration at 5 h,"[2]; rhesus monkey, in vivo",0.495 µg/mL
same,concentration at 7 h,"[2]; rhesus monkey, in vivo",0.336 µg/mL
"CN1C(=O)CN=C(c2ccccc2)c2cc(Cl)ccc21 [Diazepam, 7-Chloro-1,3-dihydro-1-methyl-5-phenyl-2H-1,4-benzodiazepine-2-one]",pharmacological (behavioral) signs of therapeutic effectiveness,[3],produces pharmacological (behavioral) signs of therapeutic effectiveness
